Experimental findings from patent publication US10772944B2, “Bacterial ghosts for the treatment of cancer” (BIRD-C GMBH, priority 2016, dated 2020) are described below.

The test system of the assay is CT26 mouse colorectal carcinoma. The conditions noted are these: one cycle: BGs 4x10^8 at D4, oxaliplatin 6 mg/kg i.p. at D4, D6; harvest D18.

Method: Treatment of mice started three days after tumor inoculation and comprised of either one or two cycles of BGs administration combined with either two or four drug administrations, respectively. Furthermore, part of mice was treated with either two or four drug administrations without the extra addition of BGs. Survival and animal behavior were monitored until the section day; animal weights were documented once per week. Tumor presence and burden were assessed at the section day including organ screening and photo documentation.
The mice were inoculated intraperitoneally (in lower left quadrant) with 1×10^5 cells of CT26 mouse colorectal carcinoma cells and randomly distributed into the seven groups (D1).
Three days after tumor inoculation (D4) the first group of animals (Group #1) received 100 μl of 5% glucose solution for injection (solvent) administered intraperitoneally at the same place as used for tumor inoculation.
Mice from Group #2.1 were injected intraperitoneally at D4 and D6 (five days after tumor inoculation) with 6 mg/kg oxaliplatin reconstituted in 100 μl of 5% glucose solution for injection at the same place as used for tumor inoculation. […]

Consider `O=C1[O][Pt]2([NH][C@@H]3CCCC[C@H]3[NH]2)[O]C1=O` [oxaliplatin], for which the “tumor burden (weight of collected tumor tissues) versus control” value is “tumor mass reduction detected”.
